# Laboratory results published in patent US5962533A, “Hydroxy polyamines” (priority 1996, dated 1999).
# Several values for one entry are separate records, joined by “and”; a condition that tells them apart may be missing. Equal entries are not always repeated. Where two headings read alike, the source gives them in different places.
# Columns and labels:
# [1] = tested on: polyamine transport apparatus; test: Competition with radiolabeled spermidine for uptake into L1210 cells (Ki); format: cell-based, Murine
# Protocol: The same cell line was utilized to evaluate the tetraamines's competition with radiolabeled spermidine for the polyamine uptake apparatus (Ki). The Ki values here are the concentrations of drugs required to inhibit the uptake of radioactive spermidine transport by 50% (Table 1).
# Uptake Determinations. The polyamine derivatives were studied for their ability to compete with [^3 H]SPD or [^14 C]SPD for uptake into L1210 leukemia cells in vitro. Cell suspensions were incubated in 1 ml of RPMI-1640 containing 1, 2, 4, 6, 8 and 10 μm radiolabeled SPD alone or with the additional presence of 10, 25 and 50 μm polyamine analogue for 20 minutes at 37° C. At the end of the incubation period, tubes were centrifuged at 900 g for 5 minutes at 0-4° C. The pellet was washed twice with 5 ml of cold RPMI-1640 containing 1 mm SPD, dissolved in 200 μl of 1N NaOH at 60° C. for 1 hour, and neutralized with 1N HCl. The material was transferred to a vial for scintillation counting.
# [2] = tested on: L1210 cells; test: L1210 growth inhibition, IC50 determinations; format: cell-based, Murine; conditions: L1210 cells
# Protocol: IC50 Determinations. Cells were grown in 25 cm^2 tissue culture flasks in a total volume of 10 ml. Cultures were treated while in logarithmic growth (0.5-1.0×10^5 cells/ml) with the polyamine derivative diluted in sterile water and filtered through a 0.2 μm filter.
# After the indicated time periods, cells were removed from the incubator for counting. Cell number was determined by electronic particle counting (Model ZF coulter counter, Coulter Electronics, Hialeah, Fla.) and confirmed periodically with hemocytometer measurements.
# The percentage of control growth was determined as follows: [formula]
# [3] = tested on: L1210 cells; test: Polyamine pool analysis in analogue-treated L1210 cells (HPLC); format: cell-based, Murine
# Protocol: Polyamine Pool Analysis. While in logarithmic growth, cells were treated with the polyamine derivatives. […] Each supernatant was frozen at -20° C. until analysis by HPLC.
# [4] = tested on: NMDA receptor; test: NMDA assay: specific [3H]MK-801 binding to washed rat cerebral cortical membranes; conditions: 100 μm L-glutamate, 100 μm glycine, 2 nm [3H]MK-801
# Excerpt: FIG. 4 depicts the effects of (HO)2 DEHSPM and DEHSPM on the NMDA receptor (MK-801 binding). Each data point represents the mean ±s.d. of three experiments. Each experiment was, in turn, performed in triplicate. "100% activity" is defined as the amount of specific MK-801 binding to washed rat cerebral cortical membranes in the presence of saturating concentrations of coagonists (100 μm L-glutamate, 100 μm glycine) and 2 nm [^3 H]MK-801.
# NMDA Assay. The procedure for measuring specific binding of [^3 H]MK-801 to the N-methyl-D-aspartate receptor complex was a modification of the method of Ransom and Stec [J. Neurochem., Vol. 51, pages 830-836 (1988)]. Cerebral cortices from young male Sprague-Dawley rats (200-300 g) were homogenized with 10 volumes ice-cold 0.32M sucrose using a motor-driven glass/Teflon homogenizer. The homogenate was centrifuged at 1,000 g for 10 minutes and the pellet was discarded. The supernatant was then centrifuged at 18,000 g for 20 minutes. The 18,000 g pellet was then resuspended in 10 volumes buffer A (5 mm Tris-HCl, pH 7.7) at 4° C., homogenized using high-intensity ultrasound and centrifuged at 8,000 for 20 minutes. The supernatant and upper buffy coat of the pellet were combined and centrifuged at 50,000 g for 20 minutes. The pellet was then resuspended in 10 volumes buffer A and homogenized using high-intensity ultrasound. These resuspended membranes were then centrifuged at 50,000 g, discarding the supernatant. The membranes were washed in this manner an additional three times and stored as a frozen suspension at -80° C. for at least 18 hours, but no longer than 2 weeks before use.
# For binding experiments, frozen membranes were thawed, pelleted at 50,000 g for 20 minutes and washed as described above, except that 20 volumes of buffer A were used for resuspension, for a total of four times. The final pellet was resuspended in buffer B (5 mm Tris-HCl, pH 7.5) at 23° C. The binding assay mixture was 1.00 ml buffer B containing 200-300 μg membrane protein, 100 μm L-glutamate, 100 μm glycine, 2 nm [^3 H]MK-801 and tetraamine at the following concentrations: 0 ("100%+L-glu,+gly-Control") and 0.05, 0.1, 0.5, 1, 5, 10, 50, 100, 500 and 1,000 μm. Non-specific binding was determined using 100 μm MK-801.
# Binding assays were performed in triplicate at 23° C. for one hour and were terminated by filtration through Whatman GF/B glass fiber filters followed by three 4.0 ml rinses of ice-cold buffer B using a Brandel M-48 Cell Harvester.
# [5] = Metabolism of (HO)2 DEHSPM v. DEHSPM in mouse liver and kidney (HPLC); format: in vivo
# Protocol: Metabolism of (HO)2 DEHSPM v. DEHSPM in Mouse Liver and Kidney. […] In ease case, animals were sacrificed for HPLC analysis one day after the final dose.
# HPLC Analysis of Polyamines. Various tissues including the liver and kidney were prepared for HPLC analysis of polyamine content. In order to facilitate their handling, the organs were submerged in liquid nitrogen. Once frozen and weighed, the tissues were homogenized (Tissuemizer, Tekmar, Cincinnati, Ohio) in 1.2N perchloric acid (containing 1,7-diaminoheptane internal standard) in a 1:20 (w/v) ratio. The tissue homogenates were then freeze-thawed three times and stored in a -70° C. freezer until HPLC analysis was performed.
# Each chromatographic assay included calibration standards which were treated in the same manner as the samples. […] The concentration of each polyamine was calculated from the peak area by calibration curves obtained by non-weighted least squares linear regression. Peak area and linear regression calculations were performed on a Macintosh Centris 650 with Rainin Dynamax HPLC Method Manager software (Rainin Instrument Co., Ridgefield, N.J.).
# [6] = Chronic toxicity, one dose per day for five days; format: in vivo; conditions: mouse, in vivo
# Protocol: In the chronic toxicity regimen, mice were administered the polyamine analogue as one dose per day for five days. Appetite, weight and overall physical appearance were recorded at the time of each injection. After the treatment regimen had been completed, the animals were observed an additional 10 days. The chronic toxicity dosing regimen was set up so that at least one test group was presented with a high fraction of lethalities.
# [7] = tested on: castor oil-induced diarrhea; test: Castor oil-induced diarrhea; format: in vivo, rat; conditions: rat
# Excerpt: Castor Oil-Induced Diarrhea. Male Sprague-Dawley rats (350-400 g) were fasted overnight in hanging wire cages and allowed free access to water.
# [8] = mice, three weeks after a seven day schedule; cited from earlier work
# [9] = Acute toxicity, single intraperitoneal injection; conditions: mouse, in vivo, ip
# [10] = Protonation state at physiological pH assumed from measured pKa values; format: physicochemical; conditions: physiological pH of 7.2
# Protocol: All of the non-aromatic, non-trifluoroethylated tetraamines are largely in the form of the tetracation at the physiological pH of 7.2. The spermine analogues (13-16 and 34) and the homospermine analogues and homologues (18-26, 29 and 31-33) should be 85 and 97%, respectively, in the form of the tetracations. The norspermine analogues (9-12) should be at least 74% in the form of the tetracations. […] Thus, the calculation of atomic charges and conformational search of these analogues were carried out based on the anticipated protonated structures.
# [11] = tetraamine analogues, L1210 cells, radiolabeled spermidine uptake, read-out: Ki, actual (Table 1)
# [12] = triamine analogues, bioassay results not in model data set, read-out: Ki, Actual (Table 2)
# [13] = 24 h after regimen, normalized for 30 g mouse
# [14] = liver and kidneys, 24 h after regimen, 30 g mouse
# [15] = mouse, one day after subchronic equimolar i.p. regimen
smiles,measurement,setting,value
CCCNCCCNCCCCNCCCNCCC [DPSPM],Ki,[1]; [11],2300 nM
"CCNCCCCNCCCNCCCCNCC [DE(4,3,4)]",Ki,[1]; [11],4000 nM
NCCCCNCCCCN [HSPD],Ki,[1]; [12],3500 nM
CC(C)NCCCNCCCNCCCNC(C)C [DIPNSPM],Ki,[1]; [11],40000 nM
"CCNCCCCNCCCCNCCCCNCC [DEHSPM, Diethylhomospermine]",Ki,"[1]; L1210 cells, estimated from Lineweaver-Burke plots, read-out: Ki, [3H]-spermidine transport",1400 nM
same,Ki,[1]; [11],1400 nM
same,IC50,"[2]; 96 h, read-out: IC50 96 h",50 to 90 nM
same,IC50,"[2]; Mus musculus, L1210, 48 h, 48 h, read-out: IC50 48 h",200 nM
same,IC50,"[2]; Mus musculus, L1210, 96 h, 96 h, read-out: IC50 96 h",70 nM
same,SPM level relative to untreated controls,"[3]; L1210 cells, 10 μm analogue, 48 hours, control = 100%",60% and 61%
same,N-deethylation by L1210 cells,[3]; in vitro conditions,do not N-deethylate
same,concentration showing agonist activity on MK-801 binding,[4],0.5-1.0 μm
same,concentrations of maximal antagonism of MK-801 binding,[4],≥ 50 μm
same,concentrations showing marked antagonist activity on MK-801 binding,[4],above 5 μm
same,"% of total dose present as total drug + metabolite, Kidneys",[5]; [13],9.67%
same,"% of total dose present as total drug + metabolite, Liver",[5]; [13],24.15%
same,"% of total dose present as unmetabolized parent drug, Kidneys",[5]; [13],3.14 ± 1.37%
same,"% of total dose present as unmetabolized parent drug, Liver",[5]; [13],1.84 ± 0.53%
same,"Amount of total dose present as dideethylated metabolite HSPM/(HO)2 HSPM, Kidneys",[5]; [13],0.408 µmol
same,"Amount of total dose present as dideethylated metabolite HSPM/(HO)2 HSPM, Liver",[5]; [13],1.394 µmol
same,"Amount of total dose present as total drug + metabolite, Kidneys",[5]; [13],0.604 µmol
same,"Amount of total dose present as total drug + metabolite, Liver",[5]; [13],1.509 µmol
same,"Amount of total dose present as unmetabolized parent drug, Kidneys",[5]; [13],0.196 µmol
same,"Amount of total dose present as unmetabolized parent drug, Liver",[5]; [13],0.115 µmol
same,"% of total dose present as total drug + metabolite, Both Tissues",[5]; [14],33.8% and 33.82%
same,"% of total dose present as unmetabolized parent drug, Both Tissues",[5]; [14],5.0% and 4.98%
same,"Amount of total dose present as dideethylated metabolite HSPM/(HO)2 HSPM, Both Tissues",[5]; [14],1.80 µmol and 1.802 µmol
same,"Amount of total dose present as total drug + metabolite, Both Tissues",[5]; [14],2.11 µmol and 2.113 µmol
same,"Amount of total dose present as unmetabolized parent drug, Both Tissues",[5]; [14],0.313 µmol and 0.311 µmol
same,level of unchanged drug in kidney,[5]; [15],409±178 nmol/g wet weight
same,level of unchanged drug in liver,[5]; [15],43.9±12.6 nmol/g wet weight
same,greater chronic toxicity of DEHSPM v. DENSPM,[6],4-5 fold
same,LD50,[6]; read-out: chronic LD50,38 mg/kg
same,prevention of castor oil-induced diarrhea,"[7]; 5 mg/kg subcutaneous, six hour assay",effectively prevented the onset of diarrheal stooling
same,stool output / diarrhea during 6 hour assay (FIG. 8),[7]; subcutaneous injection 30 minutes before castor oil 5 ml/kg,virtually no stool output
same,drug administered remaining in liver and kidney as drug or metabolites,[8],35%
same,share of drug remaining in the animal that is in the form of HSPM,[8],90%
same,LD50,[9],325 mg/kg
"c1cc(NCCCNc2ccncc2)ccn1 [PYR(3,3,3)]",Ki,[1]; [11],> 500000 nM
same,protonation state,[10],terminal dication
CCNCCCCNCCCNCC [DESPD],Ki,[1]; [12],19300 nM
CCNCCCNCCCCNCCCNCC [DESPM],Ki,[1]; [11],1600 nM
CNCCCNCCCNCCCNC [DMNSPM],Ki,[1]; [11],5600 nM
"C(CCNCC1CCNCC1)CNCC1CCNCC1 [PIP(4,4,4)]",Ki,[1]; [11],4900 nM
"C(CCNCCC1CCNCC1)CNCCC1CCNCC1 [PIP(5,4,5)]",Ki,[1]; [11],18100 nM
CNCCCCNCCCCNCCCCNC [DMHSPM],Ki,[1]; [11],970 nM
C(CCNCCCCNC12CC3CC(CC(C3)C1)C2)CNCCCCNC12CC3CC(CC(C3)C1)C2 [BAHSPM],Ki,[1]; [11],2000 nM
CNCCCNCCCCNCCCNC [DMSPM],Ki,[1]; [11],1100 nM
"NCCCNCCCN [NSPD, norspermidine]",Ki,[1]; [12],8400 nM
CCNCCCCNCCCCNCC [DEHSPD],Ki,[1]; [12],115000 nM
